Holding throughout (format): functional
Test [1] concerns Trianthema. Nature of the test: Pre-emergence herbicidal activity against Trianthema spp. in tomato field assessed as number of weeds at 2.28 kg/ha applied through drip lines/backpack-spray on week 3 to 4 before transplanting measured 12 weeks after treatment (reference value: 9 plants/m2).
For test [2], the system named is Boerhavia erecta. Description: Pre-emergence herbicidal activity against Boerhavia erecta in tomato field assessed as number of weeds at 2.28 kg/ha applied through drip lines/backpack-spray on week 3 to 4 before transplanting measured 12 weeks after treatment (reference value: 9 plants/m2).
Test [3] has as its system Portulaca oleracea. Nature of the test: Pre-emergence herbicidal activity against Portulaca oleracea in tomato field assessed as number of weeds at 2.28 kg/ha applied through drip lines/backpack-spray on week 3 to 4 before transplanting measured 12 weeks after treatment (reference value: 9 plants/m2).
Test [4] relates to Portulaca oleracea. Nature of the test: Pre-emergence herbicidal activity against Portulaca oleracea in tomato field assessed as number of weeds at 2.28 kg/ha applied through drip lines/backpack-spray on week 3 to 4 before transplanting measured 7 weeks after treatment (reference value: 9 plants/m2).
Test [5] deals with Amaranthus dubius. Nature of the test: Pre-emergence herbicidal activity against Amaranthus dubius in tomato field assessed as number of weeds at 2.28 kg/ha applied through drip lines/backpack-spray on week 3 to 4 before transplanting measured 7 weeks after treatment (reference value: 9 plants/m2).
Test [6] deals with Digitaria. Nature of the test: Pre-emergence herbicidal activity against Digitaria spp. in tomato field assessed as number of weeds at 2.28 kg/ha applied through drip lines/backpack-spray on week 3 to 4 before transplanting measured 12 weeks after treatment (reference value: 9 plants/m2).
Test [7] has as its system Echinochloa colona. Description: Pre-emergence herbicidal activity against Echinochloa colona in tomato field assessed as number of weeds at 2.28 kg/ha applied through drip lines/backpack-spray on week 3 to 4 before transplanting measured 7 weeks after treatment (reference value: 9 plants/m2).
Test [8] concerns Amaranthus dubius. Nature of the test: Pre-emergence herbicidal activity against Amaranthus dubius in tomato field assessed as number of weeds at 2.28 kg/ha applied through drip lines/backpack-spray on week 3 to 4 before transplanting measured 12 weeks after treatment (reference value: 9 plants/m2).
Test [9] has as its system Corynandra viscosa. Description: Pre-emergence herbicidal activity against Cleome viscosa in tomato field assessed as number of weeds at 2.28 kg/ha applied through drip lines/backpack-spray on week 3 to 4 before transplanting measured 7 weeks after treatment (reference value: 9 plants/m2).
Test [10] deals with Eleusine indica. Nature of the test: Pre-emergence herbicidal activity against Eleusine indica in tomato field assessed as number of extra-large fruits at 2.28 kg/ha applied through drip lines/backpack-spray on week 3 to 4 before transplanting (reference value: 21.3 x 10 '3 ha). The conditions noted are these: pooled result: one value given for 8 cell lines, strains, targets or settings.

For test [11], the system named is Trianthema. Description: Pre-emergence herbicidal activity against Trianthema spp. in tomato field assessed as total number of fruits at 2.28 kg/ha applied through drip lines/backpack-spray on week 3 to 4 before transplanting (reference value: 49.5 x 10 '3 ha). The conditions noted are these: pooled result: one value given for 8 cell lines, strains, targets or settings.

Test [12] has as its system Trianthema. Nature of the test: Pre-emergence herbicidal activity against Trianthema spp. in tomato field assessed as number of weeds at 2.28 kg/ha applied through drip lines/backpack-spray on week 3 to 4 before transplanting measured 7 weeks after treatment (reference value: 9 plants/m2).
In test [13] the test system is Echinochloa colona. Nature of the test: Pre-emergence herbicidal activity against Echinochloa colona in tomato field assessed as number of weeds at 2.28 kg/ha applied through drip lines/backpack-spray on week 3 to 4 before transplanting measured 12 weeks after treatment (reference value: 9 plants/m2).
Test [14] deals with Eleusine indica. Description: Pre-emergence herbicidal activity against Eleusine indica in tomato field assessed as total fruit weight at 2.28 kg/ha applied through drip lines/backpack-spray on week 3 to 4 before transplanting (reference value: 13.7 t/ha). The conditions noted are these: pooled result: one value given for 8 cell lines, strains, targets or settings.
The test system of test [15] is Eleusine indica. Nature of the test: Pre-emergence herbicidal activity against Eleusine indica in tomato field assessed as number of weeds at 2.28 kg/ha applied through drip lines/backpack-spray on week 3 to 4 before transplanting measured 7 weeks after treatment (reference value: 9 plants/m2).
Test [16] deals with Amaranthus dubius. Nature of the test: Pre-emergence herbicidal activity against Amaranthus dubius in tomato field assessed as extra-large fruit weight at 2.28 kg/ha applied through drip lines/backpack-spray on week 3 to 4 before transplanting (reference value: 7.3 t/ha). The conditions noted are these: pooled result: one value given for 8 cell lines, strains, targets or settings.

Test [17] relates to Poaceae. Description: Pre-emergence herbicidal activity against Poaceae (grass family) in tomato field assessed as number of weeds at 2.28 kg/ha applied through drip lines/backpack-spray on week 3 to 4 before transplanting measured 12 weeks after treatment (reference value: 8 plants/m2).
The subject of test [18] is Poaceae. Nature of the test: Pre-emergence herbicidal activity against Poaceae (grass family) in tomato field assessed as number of weeds at 2.28 kg/ha applied through drip lines/backpack-spray on week 3 to 4 before transplanting measured 7 weeks after treatment (reference value: 6 plants/m2).
The test system of test [19] is Cyperus. Nature of the test: Pre-emergence herbicidal activity against Cyperus in tomato field assessed as number of weeds at 2.28 kg/ha applied through drip lines/backpack-spray on week 3 to 4 before transplanting measured 7 weeks after treatment (reference value: 3 plants/m2).
Test [20] deals with Cyperus. Description: Pre-emergence herbicidal activity against Cyperus in tomato field assessed as number of weeds at 2.28 kg/ha applied through drip lines/backpack-spray on week 3 to 4 before transplanting measured 12 weeks after treatment (reference value: 5 plants/m2).
The test system of test [21] is Boerhavia erecta. Nature of the test: Pre-emergence herbicidal activity against Boerhavia erecta in tomato field assessed as number of weeds at 2.28 kg/ha applied through drip lines/backpack-spray on week 3 to 4 before transplanting measured 7 weeks after treatment (reference value: 9 plants/m2).
In test [22] the test system is Eleusine indica. Nature of the test: Pre-emergence herbicidal activity against Eleusine indica in tomato field assessed as number of weeds at 2.28 kg/ha applied through drip lines/backpack-spray on week 3 to 4 before transplanting measured 12 weeks after treatment (reference value: 9 plants/m2).
The subject of test [23] is Digitaria. Description: Pre-emergence herbicidal activity against Digitaria spp. in tomato field assessed as number of weeds at 2.28 kg/ha applied through drip lines/backpack-spray on week 3 to 4 before transplanting measured 7 weeks after treatment (reference value: 9 plants/m2).
The test system of test [24] is Corynandra viscosa. Description: Pre-emergence herbicidal activity against Cleome viscosa in tomato field assessed as number of weeds at 2.28 kg/ha applied through drip lines/backpack-spray on week 3 to 4 before transplanting measured 12 weeks after treatment (reference value: 9 plants/m2).

`CCN(CC)C(=O)C(C)Oc1cccc2ccccc12` (centres undefined) [NAPROPAMIDE]: the Activity was 7 /m2 in test [1]; 7 /m2 in [2]; 7 /m2 in test [3]; 4 /m2 in test [4]; 4 /m2 in [5]; 7 /m2 in test [6]. The Activity in test [7] is 4 /m2; in test [8], 7 /m2; in test [9], 4 /m2; in test [11] it was 58.3 10^3 fruits/ha; in test [12], 4 /m2; in [13], 7 /m2. Moreover, the Activity in test [14] is on record as 16.4 tons/ha; in test [15], 4 /m2; in test [16], 9.1 tons/ha; in [17], 6 /m2; in [18], 1 /m2; in [19] it was 6 /m2. Besides, the Activity in test [20] is 9 /m2; in test [21], 4 /m2; in test [22] it was 7 /m2; in test [23], 4 /m2; in [24] it was 7 /m2. The fruit count in [10] is 26.3 10^3 fruits/ha.

The record behind these values is ChEMBL document CHEMBL3044556, “Managing weeds with drip-applied herbicides in tomato” (2008).
